From US20200129622A1, “METHODS OF MAKING ANTIMICROBIAL BIOPOLYMER FROM SODIUM ALGINATE AND ALGAE EXTRACT USING AMINOGLYCOSIDES, AND METHODS OF USING THE SAME” (Colorado School of Mines, priority 2018, published 2020) come the findings set out here.

Structures can show the parent of a compound that is named as a salt.

The assay relates to E. coli DH5α. The experiment in a line: Antimicrobial activity by agar diffusion assay (zone of inhibition). It counts as cell-based. Further details: unit not given here. As to conditions: 50 μl of 10 mg/ml aqueous antibiotic stock in agar well; 37° C., 18 hr. As to the method: Antimicrobial activity of polymers was checked against E. coli DH5α using agar diffusion assay. Single colony of E. coli was inoculated in 10 ml of Luria Broth (LB) and incubated till OD600 reached 0.5 (log-phase culture) and 100 μl of bacterial culture was spread over LB agar plates. To check the antimicrobial activity of the antibiotics, wells were made by punching a hole in the LB agar plates. For reference plates, 50 μl of 10 mg/ml aqueous stock solution of each antibiotic was added in the wells as shown in the top row of FIG. 6.
For experiments with alginate polymers, polymer pellets were washed three times with sterile DI water to remove any unbound free antibiotics. Each washing step included the addition of 500 μl of sterile DI water and centrifugation at 10000 rpm for 15 min. After washing, polymer pellets were placed at the center of the LB plates with E. coli DH5α. Plates were incubated at 37° C. for 18 hours (hr). The zone of inhibition, e.g., the area with no growth of bacteria around well or polymer pellet, was measured using a ruler as shown in the middle and bottom rows of FIG. 6 and in Table 3 below.
The antimicrobial property of alginateaminoglycoside polymer against E. coli DH5α was quantified by measurement of the zone of bacterial inhibition. In particular, aminoglycoside biopolymers were prepared in microcentrifuge tubes and after centrifugation, pellet was washed three times with sterile deionized water to remove free antibiotic. After washing, the polymer pellet was carefully removed using a spatula and placed at the center of the plate containing E. coli DH5α cells and incubated for 18 hr. After incubation for 18 hr, white polymer pellets became transparent to varying degrees.
In particular, circular zones of growth inhibition are visible after antibiotics and polymers were placed in wells at the centers of LB plates. […] While polymers made with KS, GS, and KDS became transparent, polymers made with TS and NS remained white.
For the compound `NC[C@H]1O[C@H](O[C@H]2[C@H](O)[C@@H](O[C@H]3O[C@H](CO)[C@@H](O)[C@H](N)[C@H]3O)[C@H](N)C[C@@H]2N)[C@H](O)[C@@H](O)[C@@H]1O` [KS, kanamycin sulfate], the “diameter of zone of inhibition, Antibiotic only” value is on record as 3.4 ± 0.1.
For `[H]/N=C(/N)N[C@H]1[C@H](O)[C@@H](O)[C@H](O[C@@H]2O[C@@H](C)[C@](O)(C=O)[C@H]2O[C@@H]2O[C@@H](CO)[C@H](O)[C@@H](O)[C@@H]2NC)[C@@H](N/C(N)=N\[H])[C@@H]1O` [SS, streptomycin sulfate], the “diameter of zone of inhibition, Antibiotic only” value was 3.5 ± 0.1.
Under gentamicin sulfate [GS] stands 2.9 ± 0.1.
The result for kanamycin disulfate [KDS] reads 3.0 ± 0.1; that for neomycin sulfate [NS], 3.0 ± 0.2; that for tobramycin sulfate [TS], 3.1 ± 0.1.
